For two molecules, K results are on record in ChEMBL document CHEMBL5316275 (J Med Chem, 2023).

The target of this series is Albumin (Homo sapiens, UniProt P02768). Put plainly: Binding affinity to human serum albumin assessed as association constant measured after 18 hrs by equilibrium dialysis method. Background: Equilibrium dialysis compares concentrations on both sides of a semipermeable membrane.
Sequence of Albumin (P02768 whole entry): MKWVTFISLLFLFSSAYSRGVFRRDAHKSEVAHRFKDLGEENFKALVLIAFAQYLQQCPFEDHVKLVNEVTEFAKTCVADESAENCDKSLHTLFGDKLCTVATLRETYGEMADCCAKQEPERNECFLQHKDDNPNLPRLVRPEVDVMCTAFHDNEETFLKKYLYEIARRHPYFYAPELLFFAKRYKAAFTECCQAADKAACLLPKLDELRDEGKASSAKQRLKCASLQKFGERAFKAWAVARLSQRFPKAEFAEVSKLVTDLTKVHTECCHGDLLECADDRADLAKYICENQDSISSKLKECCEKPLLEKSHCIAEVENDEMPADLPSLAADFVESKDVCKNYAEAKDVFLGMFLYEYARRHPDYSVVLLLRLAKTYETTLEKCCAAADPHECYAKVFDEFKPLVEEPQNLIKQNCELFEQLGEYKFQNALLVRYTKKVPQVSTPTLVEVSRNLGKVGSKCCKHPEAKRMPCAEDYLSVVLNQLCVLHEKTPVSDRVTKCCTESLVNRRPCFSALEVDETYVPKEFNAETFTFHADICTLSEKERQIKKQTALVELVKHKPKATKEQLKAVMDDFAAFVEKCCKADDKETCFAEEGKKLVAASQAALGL

Regarding `COc1c(C)c2c(c(O)c1C/C=C(\C)CCC(=O)OCCN1CCOCC1)C(=O)OC2` [MYCOPHENOLATE MOFETIL], the K is given as 0.83 10^5/M.
The figure for `COC(=O)CC/C(C)=C/Cc1c(O)c2c(c(C)c1OC)COC2=O` is 1.91 10^5/M.
